The structures appear in SMILES notation. ≈ marks a conversion by molar mass, not a printed value. Where two headings read alike, the source gives them in different places.

The test system of data set [1] is S. aureus SA-1199B (overexpresses the NorA efflux protein). Kind of data set: MIC/MBC by broth microdilution, strain SA-1199B. The format is cell-based. As to conditions: Staphylococcus aureus; for MBC: read-out: Minimum Bactericidal Concentration (MBC); for MIC: read-out: Minimum Inhibitory Concentration (MIC). The procedure:
(§1) The effluxing strains were kindly provided by Professor Simon Gibbons (University of London, London, UK), and the MARSA strains were obtained from the culture collection of the Laboratory of Microorganism Genetics (Department of Molecular Biology, Federal University of Paraíba). All strains were maintained on blood agar base slants (BAB, Difco Laboratories Ltd., Brazil), and prior to use, the cells were grown overnight at 37 °C in brain heart infusion broth (BHI, Difco Laboratories Ltd., Detroit, MI, USA).
(§2) The stock solutions of the compounds were prepared in DMSO which at its highest final concentration after dilution in the broth (4%) caused no inhibition of bacterial growth. The minimum inhibitory concentrations (MICs) of the compounds were determined in BHI by microdilution assay using a suspension of ca. 10^5 cfu/mL and a drug concentration range of 256 to 0.5 μg/mL (two-fold serial dilutions). The MIC is defined as the lowest concentration at which no growth is observed. The dye resazurin was used for better visualization of the bacterial growth. […] The minimum bactericidal concentration (MBC) is defined as the lowest drug concentration that gives no growth on the agar.

Data set [2] has as its system S. aureus RN-4220 (plasmid pUL5054, MsrA macrolide efflux protein). In words: MIC/MBC by broth microdilution, strain RN-4220. The format is cell-based. As to conditions: Staphylococcus aureus; for MBC: read-out: Minimum Bactericidal Concentration (MBC); for MIC: read-out: Minimum Inhibitory Concentration (MIC). The procedure:
as §1, §2

Data set [3] relates to S. aureus IS-58 (TetK tetracycline efflux protein). Kind of data set: MIC/MBC by broth microdilution, strain IS-58. In kind it is cell-based. As to conditions: Staphylococcus aureus; for MBC: read-out: Minimum Bactericidal Concentration (MBC); for MIC: read-out: Minimum Inhibitory Concentration (MIC). The procedure: as §1, §2
The subject of another data set is S. aureus 007 (MARSA). In words: MIC/MBC by broth microdilution, clinical strain 007. The format is cell-based. As to conditions: Staphylococcus aureus; for MBC: read-out: Minimum Bactericidal Concentration (MBC); for MIC: read-out: Minimum Inhibitory Concentration (MIC). The procedure: as §1, §2
For the next data set, the system named is S. aureus 05H (MARSA). Kind of data set: MIC/MBC by broth microdilution, clinical strain 05H. The format is cell-based, Staphylococcus aureus. As to conditions: for MIC / MBC: Staphylococcus aureus, 5 h; for MBC: read-out: Minimum Bactericidal Concentration (MBC). How it is done: as §1, §2
Setting [4] is: read-out: Minimum Inhibitory Concentration (MIC).
Setting [5] is: strain 007, first number of cell MIC-MBC.
Where [6] appears, read: strain 007, second number of cell MIC-MBC.

For `O=C(N[C@H](CO)[C@H](O)c1ccc([N+](=O)[O-])cc1)C(Cl)Cl` [Chloramphenicol, chloramphenicol, reference compound], the MBC in data set [1] came to 64 µg/mL (≈ 198 µM); in data set [2], 128 µg/mL (≈ 396 µM); in data set [3] it was 128 µg/mL (≈ 396 µM); in the data set on S. aureus 007 (MARSA), 128 µg/mL (≈ 396 µM); with S. aureus 05H (MARSA) it was 128 µg/mL (≈ 396 µM). The MIC (in data set [1]; in data set [2]; in data set [3]; in the data set with S. aureus 007 (MARSA); against S. aureus 05H (MARSA); in the data set on S. aureus 05H (MARSA) (setting [4])) was 64 µg/mL (≈ 198 µM) in each case.
With `O=C(NN=Cc1ccc([N+](=O)[O-])o1)c1ccccc1` [Compound 4a, N′-((5-nitrofuran-2-yl)methylene)benzohydrazide], the MBC was found to be 16 µg/mL (≈ 61.7 µM) in data set [1], 8 µg/mL (≈ 30.9 µM) in the data set with S. aureus 007 (MARSA) (setting [6]) and 8 µg/mL (≈ 30.9 µM) in the data set with S. aureus 05H (MARSA). Besides, the MIC was 16 µg/mL (≈ 61.7 µM) in data set [1], 8 µg/mL (≈ 30.9 µM) in the data set on S. aureus 007 (MARSA) (setting [5]) and 8 µg/mL (≈ 30.9 µM) with S. aureus 05H (MARSA) (setting [4]).
Consider `Cc1ccc(C(=O)NN=Cc2ccc([N+](=O)[O-])o2)cc1` [Compound 4b, 4-Methyl-N′-((5-nitrofuran-2-yl)methylene)benzohydrazide], for which the MBC in data set [1] was found to be 32 µg/mL (≈ 117 µM); in the data set on S. aureus 007 (MARSA) (setting [6]) it was 8 µg/mL (≈ 29.3 µM); in the data set with S. aureus 05H (MARSA) it was 4 µg/mL (≈ 14.6 µM). The figures for the MIC (in data set [1]; with S. aureus 007 (MARSA) (setting [5]); in the data set with S. aureus 05H (MARSA) (setting [4])) were 16 µg/mL (≈ 58.6 µM), 8 µg/mL (≈ 29.3 µM) and 4 µg/mL (≈ 14.6 µM), respectively.
Consider `O=C(NN=Cc1ccc([N+](=O)[O-])o1)c1ccc([N+](=O)[O-])cc1` [Compound 4c, 4-Nitro-N′-((5-nitrofuran-2-yl)methylene)benzohydrazide], for which the MBC is 32 µg/mL (≈ 105 µM) in data set [1], 32 µg/mL (≈ 105 µM) in data set [2], 16 µg/mL (≈ 52.6 µM) in the data set with S. aureus 007 (MARSA) (setting [6]) and 8 µg/mL (≈ 26.3 µM) with S. aureus 05H (MARSA). Moreover, the MIC in data set [1] stood at 32 µg/mL (≈ 105 µM); in data set [2], 16 µg/mL (≈ 52.6 µM); in data set [3] it was 16 µg/mL (≈ 52.6 µM); in the data set on S. aureus 007 (MARSA) (setting [5]) it was 8 µg/mL (≈ 26.3 µM); in the data set on S. aureus 05H (MARSA) (setting [4]), 8 µg/mL (≈ 26.3 µM).
Regarding `O=C(NN=Cc1ccc([N+](=O)[O-])o1)c1ccc(Cl)cc1` [Compound 4d, 4-Chloro-N′-((5-nitrofuran-2-yl)methylene)benzohydrazide], the MBC in data set [1] came to 16 µg/mL (≈ 54.5 µM); in data set [3], 16 µg/mL (≈ 54.5 µM); in the data set with S. aureus 007 (MARSA) (setting [6]) it was 8 µg/mL (≈ 27.2 µM); with S. aureus 05H (MARSA) it was 4 µg/mL (≈ 13.6 µM). For the same molecule, the MIC in data set [1] was determined as 16 µg/mL (≈ 54.5 µM); in the data set on S. aureus 007 (MARSA) (setting [5]), 8 µg/mL (≈ 27.2 µM); in the data set with S. aureus 05H (MARSA), 4 µg/mL (≈ 13.6 µM); in the data set with S. aureus 05H (MARSA) (setting [4]), 4 µg/mL (≈ 13.6 µM). In addition, the “fold more potent than the standard chloramphenicol” value in the data set on S. aureus 05H (MARSA) (strain MARSA (05H)) turned out to be 16 fold.
With `COc1ccc(C(=O)NN=Cc2ccc([N+](=O)[O-])o2)cc1` [Compound 4e, 4-Methoxy-N′-((5-nitrofuran-2-yl)methylene)benzohydrazide], the MBC in data set [1] came out at 16 µg/mL (≈ 55.3 µM); in data set [2], 16 µg/mL (≈ 55.3 µM); in the data set on S. aureus 007 (MARSA) (setting [6]), 8 µg/mL (≈ 27.7 µM); in the data set on S. aureus 05H (MARSA) it was 4 µg/mL (≈ 13.8 µM). For the same molecule, the MIC in data set [1] was found to be 16 µg/mL (≈ 55.3 µM); in data set [2], 16 µg/mL (≈ 55.3 µM); with S. aureus 007 (MARSA) (setting [5]), 8 µg/mL (≈ 27.7 µM); in the data set on S. aureus 05H (MARSA) (setting [4]) it was 4 µg/mL (≈ 13.8 µM).
As to `CC(=O)N1N=C(c2ccccc2)OC1c1ccc([N+](=O)[O-])o1` (stereo not drawn) [Compound 5a, 1-(2-(5-Nitrofuran-2-yl)-5-phenyl-1,3,4-oxadiazol-3(2H)-yl)ethanone], the melting point lay in the range of 178 to 180 °C. In addition, the MIC in data set [2] was determined as 16 µg/mL (≈ 53.1 µM). Moreover, in data set [3], the MBC was 16 µg/mL (≈ 53.1 µM) and the MIC is 16 µg/mL (≈ 53.1 µM). In addition, the MIC in the data set with S. aureus 007 (MARSA) (setting [5]) was 32 µg/mL (≈ 106 µM). In addition, the MBC with S. aureus 007 (MARSA) (setting [6]) is 32 µg/mL (≈ 106 µM). The MBC in the data set on S. aureus 05H (MARSA) was found to be 16 µg/mL (≈ 53.1 µM). For the same molecule, the MIC in the data set on S. aureus 05H (MARSA) (setting [4]) was 16 µg/mL (≈ 53.1 µM).
In turn, `CC(=O)N1N=C(c2ccc(C)cc2)OC1c1ccc([N+](=O)[O-])o1` (stereo not drawn) [Compound 5b, 1-(2-(5-Nitrofuran-2-yl)-5-(methylphenyl)-1,3,4-oxadiazol-3(2H)-yl)ethanone] showed a melting point of 160 to 162 °C.
For `CC(=O)N1N=C(c2ccc([N+](=O)[O-])cc2)OC1c1ccc([N+](=O)[O-])o1` (stereo not drawn) [Compound 5c, 1-(2-(5-Nitrofuran-2-yl)-5-(4-nitrophenyl)-1,3,4-oxadiazol-3(2H)-yl)ethanone], the melting point fell in the range of 188 to 190 °C. In data set [1], the MBC is 32 µg/mL (≈ 92.4 µM) and the MIC amounted to 32 µg/mL (≈ 92.4 µM). The MBC in data set [2] is 32 µg/mL (≈ 92.4 µM). Also, the MIC in the data set with S. aureus 007 (MARSA) (setting [5]) came to 16 µg/mL (≈ 46.2 µM). In addition, in the data set with S. aureus 007 (MARSA) (setting [6]), the MBC worked out at 16 µg/mL (≈ 46.2 µM). In the data set with S. aureus 05H (MARSA), the MBC was 8 µg/mL (≈ 23.1 µM). Also, in the data set with S. aureus 05H (MARSA) (setting [4]), the MIC was found to be 8 µg/mL (≈ 23.1 µM).
Regarding `CC(=O)N1N=C(c2ccc(Cl)cc2)OC1c1ccc([N+](=O)[O-])o1` (stereo not drawn) [Compound 5d], the melting point was 188 to 190 °C. In data set [1], the MBC worked out at 32 µg/mL (≈ 95.3 µM). The MBC in data set [2] amounted to 32 µg/mL (≈ 95.3 µM). Besides, the MIC in the data set with S. aureus 007 (MARSA) (setting [5]) worked out at 16 µg/mL (≈ 47.7 µM). The MBC in the data set on S. aureus 007 (MARSA) (setting [6]) stood at 16 µg/mL (≈ 47.7 µM). Further, in the data set with S. aureus 05H (MARSA), the MIC was determined as 8 µg/mL (≈ 23.8 µM) and the MBC turned out to be 8 µg/mL (≈ 23.8 µM). Also, the MIC in the data set on S. aureus 05H (MARSA) (setting [4]) was found to be 8 µg/mL (≈ 23.8 µM).
The molecule `COc1ccc(C2=NN(C(C)=O)C(c3ccc([N+](=O)[O-])o3)O2)cc1` (stereo not drawn) [Compound 5e, 1-(2-(5-Nitrofuran-2-yl)-5-(methoxyphenyl)-1,3,4-oxadiazol-3(2H)-yl)ethanone] registered a melting point of 181 to 183 °C.
